Assay results taken from patent US11172674B2, “Preservation solutions” (ORGAN PRESERVATION SOLUTIONS LIMITED, priority 2017, dated 2021).

Tests used:
human cells = conditions: Heeneman et al 1993; cited from earlier work
[1] = Stability of aspirin in preservation solution on storage (HPLC); assay type: physicochemical
Source text: FIG. 1 illustrates the stability of aspirin in a preservation solution: HPLC methods were developed to measure the concentration of aspirin and salicylic acid in the Prior Art solution. Aspirin is rapidly hydrolysed to salicylic acid and acetic acid during storage. […] As an example, FIG. 1 illustrates that storage of the solution for 8 weeks results in 100% of the aspirin converting to salicylic acid and the production of equimolar amounts of damaging acetic acid.

parent compound remaining ([1]; Prior Art solution, after 8 weeks storage, HPLC)	aspirin converting to salicylic acid ([1]; storage of the prior art solution for 8 weeks)	SMILES	concentration toxic to human cells (human cells)
		N [ammonia]	300 µM
none of the parent compound remains	100%	CC(=O)Oc1ccccc1C(=O)O [aspirin, acetylsalicylic acid]	
